In patent publication US10183021B2, “sGC stimulators” (Ironwood Pharmaceuticals, Inc., priority 2013, dated 2019):

Key:
Sprague-Dawley rats = experiment: Blood pressure change in Sprague-Dawley rats (Example 4); assay type: in vivo, rat; settings: conscious male Sprague-Dawley rats, PO, 10 mg/kg
Description: Male rats (250-350 g body weight, supplied by Harlan Laboratories) were anesthetized with ketamine/xylazine and a heparinized saline fluid filled catheter implanted into the right femoral artery. The catheter was exteriorized between the scapula, capped, and the animal allowed to recover for at least 7 days post surgery prior to any compound testing. Prior to testing animals were maintained on normal diet, with free access to drinking water, under a 12 hour light-dark cycle.
On the day of experimentation, under inhaled isoflurane anesthesia, the catheter was uncapped and connected to a tether (Instech Labs) and pressure transducer (Harvard Apparatus). Blood pressure and heart rate were subsequently captured and analyzed with a dedicated data capture system (PowerLab, ADInstruments). Data sampling rates were set at 1 cycle per second. Once connected, each rat was allowed to recover from anesthesia and baseline blood pressure and heart rate levels were established in these conscious, freely-moving animals. Once baseline was established either vehicle (0.5% methylcellulose or 100% PEG400) or test article was administered orally (PO, 10 mg/kg) and the effects on blood pressure and heart rate monitored for up to 24 hours.
Data are reported as hourly averages and changes in blood pressure are calculated from subtracting individual baseline on an hourly basis.

[1] = target: T1, soluble guanylate cyclase (sGC) (Homo sapiens (Human), UniProt Q02108+Q02153); experiment: sGC-HEK-cGMP assay, new protocol with DETA-NONOate, LC/MS detection (Example 2C); assay type: cell-based; settings: read-out: Absolute EC50 (uM) - binned
[2] = target: T1, soluble guanylate cyclase (sGC); experiment: sGC-HEK-cGMP assay with SNP incubation, LC/MS detection (Example 2A); assay type: cell-based; settings: HEK293 cells, 10 μM SNP, LC/MS detection; for Emax: 100% = BAY 41-2272 at 10 μM, read-out: HEK assay Emax - unconstrained (%)
In short: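 HEK293 cells with endogenous sGC were pretreated 15 min at 37 °C with 0.5 mM IBMX, then exposed 10 min at 37 °C to compound (added from 0.0001–30 μM solutions) plus SNP (from 10 μM solution). After 0.1 M HCl lysis, cGMP was quantified by LC/MS against a standard curve.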

[3] = system: lambs with acute pulmonary hypertension; settings: inhaled microparticles, awake lambs, U-46619-induced pulmonary hypertension; cited from earlier work
[4] = target: T1, soluble guanylate cyclase (sGC); experiment: sGC-HEK-cGMP assay with SNP incubation, HTRF detection (Example 2B); assay type: cell-based; settings: HEK293 cells, 10 μM SNP; for Emax: 100% = BAY 41-2272 at 10 μM + 100 μM SNP, read-out: HEK assay Emax - unconstrained (%); for EC50: read-out: HEK assay EC50 - unconstrained
Description: Human embryonic kidney cells (HEK293), endogenously expressing soluble guanylate cyclase (sGC), were used to evaluate the activity of test compounds. Compounds stimulating the sGC enzyme should cause an increase in the intracellular concentration of cGMP. HEK 293 cells were seeded in Dulbecco's Modification of Eagle's Medium supplemented with fetal bovine serum (10% final) and L-glutamine (2 mM final) in a 200 μL volume at a density of 1×10^5 cells/well in a poly-D-lysine coated 96 well flat bottom plate and grown overnight at 37° C. Medium was aspirated and cells were washed with 1× Hank's Buffered Saline Salt Solution (200 μL). Cells were then incubated for 15 minutes at 37° C. with 200 μL of a 0.5 mM 3-isobutyl-1-methylxanthine (IBMX) solution. Test article and sodium nitroprusside solutions were then added to the assay mixture (2 μL each) and the resulting mixture incubated at 37° C. for 10 minutes. After the 10 minute incubation, the assay mixture was aspirated and 0.1M HCl (200 μL) was added to the cells. The plate was incubated at 4° C. for 30 minutes in the 0.1M HCl to stop the reaction and lyse the cells. The plates were then centrifuged at 1,200 g for 5 minutes at room temperature. GMP levels were determined using a cGMP HTRF assay (Cisbio Product #62GM2PEC). For each sample, 5 uL of HEK assay supernatant was diluted 1:5 in HTRF kit assay diluent and transferred to a well of the assay plate, and the HTRF assay was performed according to the HTRF kit manufacturer's instructions. Sample calculations were performed using high and low controls, where high control was supernatant from HEK assay performed in the presence of 10 uM Bay 41-2272+100 uM SNP, and the low control was the supernatant from the HEK assay performed in the presence of vehicle. A cGMP standard solution was prepared in 0.1 M HCl and diluted in order to perform a cGMP standard curve using the HTRF assay. Using Mean Ratio data from the HTRF assay, sample date were normalized according to the equation: 100*(Sample−Low Control)/(High Control−Low Control). Data were fit to a 3-parameter log agonist dose response (Top (% EMax), Bottom, log EC50) using Graphpad (Prism Software). Data in Table 4 was obtained using this modified assay procedure. (x μM concentration for test article solution and 10 μM concentration for SNP solution; wherein x is one of the following concentrations: 30 μM, 10 μM, 3 μM, 1 μM, 0.3 μM, 0.1 μM, 0.03 μM, 0.01 μM, 0.003 μM, 0.001 μM, 0.0003 μM and 0.01 nM.

[5] = top of curve not fitted to 100%, read-out: HEK assay EC50 - unconstrained
[6] = top of curve fitted to 100%, read-out: HEK assay EC50 - constrained

T1 sequence (Q02153 whole entry): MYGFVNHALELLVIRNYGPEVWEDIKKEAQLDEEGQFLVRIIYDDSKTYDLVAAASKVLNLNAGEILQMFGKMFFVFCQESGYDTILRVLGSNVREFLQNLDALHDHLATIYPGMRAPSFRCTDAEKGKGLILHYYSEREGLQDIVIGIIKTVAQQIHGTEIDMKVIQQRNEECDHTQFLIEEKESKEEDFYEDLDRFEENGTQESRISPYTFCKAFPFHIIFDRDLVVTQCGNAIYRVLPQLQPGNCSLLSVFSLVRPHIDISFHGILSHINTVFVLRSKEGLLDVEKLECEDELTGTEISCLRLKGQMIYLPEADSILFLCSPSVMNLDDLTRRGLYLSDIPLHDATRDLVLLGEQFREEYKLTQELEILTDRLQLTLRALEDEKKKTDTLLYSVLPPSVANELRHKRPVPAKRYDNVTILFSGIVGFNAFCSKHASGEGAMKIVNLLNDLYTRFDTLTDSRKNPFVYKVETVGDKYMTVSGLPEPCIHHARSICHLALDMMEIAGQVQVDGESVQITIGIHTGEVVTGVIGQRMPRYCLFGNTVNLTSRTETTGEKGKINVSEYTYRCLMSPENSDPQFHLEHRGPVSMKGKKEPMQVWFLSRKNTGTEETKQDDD
T1 sequence (Q02108 whole entry): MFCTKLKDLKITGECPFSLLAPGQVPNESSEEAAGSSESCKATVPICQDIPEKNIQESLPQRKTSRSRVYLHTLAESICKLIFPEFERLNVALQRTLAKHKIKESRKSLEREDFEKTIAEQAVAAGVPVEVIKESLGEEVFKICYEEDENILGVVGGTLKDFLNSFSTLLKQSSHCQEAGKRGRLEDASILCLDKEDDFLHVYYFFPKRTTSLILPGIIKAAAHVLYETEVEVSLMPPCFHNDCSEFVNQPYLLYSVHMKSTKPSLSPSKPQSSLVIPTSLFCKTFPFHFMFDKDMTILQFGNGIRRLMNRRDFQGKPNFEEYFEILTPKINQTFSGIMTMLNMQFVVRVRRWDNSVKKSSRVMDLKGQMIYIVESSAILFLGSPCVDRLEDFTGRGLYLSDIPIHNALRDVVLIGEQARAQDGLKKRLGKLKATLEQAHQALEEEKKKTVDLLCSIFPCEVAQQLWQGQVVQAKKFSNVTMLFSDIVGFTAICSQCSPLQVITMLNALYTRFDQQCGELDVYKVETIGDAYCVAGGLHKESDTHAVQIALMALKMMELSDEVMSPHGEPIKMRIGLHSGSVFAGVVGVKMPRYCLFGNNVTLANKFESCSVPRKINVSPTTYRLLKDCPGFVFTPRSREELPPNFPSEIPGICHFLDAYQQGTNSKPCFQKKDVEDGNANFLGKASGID

SMILES | Rat Mean Arterial Pressure peak change from baseline at 10 mpk (Sprague-Dawley rats) | EC50 [1] [µM] | Emax [2] [%] | EC50 [2, 5] [nM] | pulmonary vasodilation [3] | Emax [4] [%] | EC50 [4] [nM] | EC50 [2, 6] [nM]
CC(C)[C@@H](C(=O)NS(=O)(=O)C1CC1)N(C)c1nc(-c2cc(-c3ccon3)n(Cc3ccccc3F)n2)ncc1F [Compound I-187] | A (A = −10 < peak change from baseline at 10 mpk < 0) | < 0.1 | 80 to 100 | 1 to 100 | – | – | – | –
O=C(O)CCCCN(CCc1ccccc1OCc1ccc(CCc2ccccc2)cc1)Cc1ccc(C(=O)O)cc1 [BAY 58-2667] | – | – | – | – | dose dependent pulmonary vasodilation | – | – | –
N#Cc1cnc(-c2cc(-c3ccon3)n(Cc3ccccc3F)n2)nc1N1CCOCC1 [Compound I-29] | – | – | – | – | – | 40 to 60 | 100 to 500 | –
CC(C)[C@@H](C(=O)O)N(C)c1nc(-c2cc(-c3ccon3)n(Cc3ccccc3F)n2)ncc1F [Compound I-89] | C (C = peak change from baseline at 10 mpk < −20) | < 0.1 | 60 to 80 | 1 to 100 | – | – | – | –
CC(C)[C@@H](CN(C)c1nc(-c2cc(-c3ccon3)n(Cc3ccccc3F)n2)ncc1F)C(=O)O [Compound I-253] | B (B = −20 ≤ peak change from baseline at 10 mpk ≤ −10) | – | 60 to 80 | 1 to 100 | – | 80 to 100 | 1 to 100 | –
COC(=O)Nc1nc(-c2cc(-c3ccon3)n(Cc3ccccc3F)n2)ncc1F [Compound I-51] | – | – | – | – | – | 80 to 100 | 500 to 1000 | 1000 to 5000
O=C(O)[C@H]1[C@@H]2CN(c3nc(-c4cc(-c5ccon5)n(Cc5ccccc5F)n4)ncc3F)C[C@@H]21 [Compound I-271] | – | – | – | – | – | 80 to 100 | 1 to 100 | –
CC(C)C1(C(=O)O)CCN(c2nc(-c3cc(-c4ccon4)n(Cc4ccccc4F)n3)ncc2F)CC1 [Compound I-306] | B (B = −20 ≤ peak change from baseline at 10 mpk ≤ −10) | < 0.1 | 80 to 100 | 1 to 100 | – | – | – | –
Nc1nc(-c2nn(Cc3ccccc3F)c3ncccc23)ncc1C1CC1 [BAY 41-2272] | – | – | – | – | dose dependent pulmonary vasodilation | – | – | –
CC(C)C[C@H](C(=O)O)N(C)c1nc(-c2cc(-c3ccon3)n(Cc3ccccc3F)n2)ncc1F [Compound I-221] | – | < 0.1 | 0 to 10 | > 10000 | – | 100 to 120 | 1000 to 5000 | –
Fc1ccccc1Cn1nc(-c2ncc(F)c(N3CCn4c(nnc4C(F)(F)F)C3)n2)cc1-c1ccon1 [Compound I-16] | – | < 0.1 | 100 to 120 | 1 to 100 | – | 100 to 120 | 1 to 100 | –
CC(C)[C@@H](C(=O)O)N(C)c1nc(-c2nc(-c3ccon3)n(Cc3ccccc3F)n2)ncc1F [Compound I-200] | – | > 1 | 80 to 100 | 5000 to 10000 | – | 100 to 120 | 1000 to 5000 | 1000 to 5000
O=C(O)C1(c2ccccc2)CCN(c2nc(-c3cc(-c4ccon4)n(Cc4ccccc4F)n3)ncc2F)CC1 [Compound I-186] | B (B = −20 ≤ peak change from baseline at 10 mpk ≤ −10) | < 0.1 | 80 to 100 | 1 to 100 | – | – | – | –
O=C(O)CNc1nc(-c2cc(-c3ccon3)n(Cc3ccccc3F)n2)ncc1F [Compound I-67] | – | > 1 | 80 to 100 | 5000 to 10000 | – | 60 to 80 | 1000 to 5000 | > 10000
CC1(C(=O)O)CCN(c2nc(-c3nc(-c4ccon4)n(Cc4ccccc4F)n3)ncc2F)CC1 [Compound I-249] | – | – | 60 to 80 | 1000 to 5000 | – | 100 to 120 | 500 to 1000 | –
Fc1ccccc1Cn1nc(-c2ncc(F)c(NC3CCNCC3)n2)cc1-c1ccon1 [Compound I-36] | – | – | 40 to 60 | 1000 to 5000 | – | 80 to 100 | 100 to 500 | –
Fc1ccccc1Cn1nc(-c2ncc(F)c(N3CCOCC3)n2)cc1-c1ccon1 [Compound I-3] | – | – | 60 to 80 | – | – | 80 to 100 | – | –
O=S(=O)(NC1CN(c2nc(-c3cc(-c4ccon4)n(Cc4ccccc4F)n3)ncc2F)C1)C(F)(F)F [Compound I-388] | B (B = −20 ≤ peak change from baseline at 10 mpk ≤ −10) | < 0.1 | – | – | – | – | – | –
Nc1nc(-c2nn(Cc3ccccc3F)c3ncccc23)nc(N)c1N1CCOCC1 [BAY 41-8543] | – | – | – | – | dose dependent pulmonary vasodilation | – | – | –
CC(C)[C@H](CN(C)c1nc(-c2cc(-c3ccon3)n(Cc3ccccc3F)n2)ncc1F)C(=O)O [Compound I-248] | C (C = peak change from baseline at 10 mpk < −20) | – | 80 to 100 | 1 to 100 | – | 80 to 100 | 1 to 100 | –
